Here are results for 10 molecules from patent publication US20240239790A1, “7-Morpholino-1,6-Naphthyridin-5-yl Derivatives and Pharmaceutical Compositions Thereof Useful as DNA-PK Inhibitor” (adMare Therapeutics Society, priority 2021, published 2024).

The target in series [1] is T1, DNA-PK phosphorylation at Serine 2056 (Homo sapiens, UniProt P78527).
T1 construct: FaDu cells were purchased from ATCC; host or cells: FaDu
In words: Cellular Assay for Inhibition of DNA-PK Phosphorylation at Serine 2056 in FaDu cells (sandwich ELISA, neocarzinostatin). It counts as cell-based. To be noted: pSer2056 DNA-PK, Table 3. How it is done:
FaDu cells were purchased from ATCC and maintained in MEM alpha medium (Life Technologies, cat. no. 12561) supplemented with 10% fetal bovine serum, and 1% GlutaMAX at 37° C. supplemented with 5% CO2. 50,000 cells were seeded to each well of a 96-well cell culture plate in 50 μL of culture medium and incubated for 16-24 hours. Three-fold serially diluted compounds were prepared in DMSO. Culture media was used to prepare compound treatments to 0.3% DMSO (dimethyl sulphoxide) content. Compound treatments were added to the cells for 1 hour prior incubation, followed by the addition of neocarzinostatin in fresh culture medium to 1 μg/mL final concentration for an additional 2 hours incubation to induce DNA DSBs (double-strand breaks). DMSO controls were incubated with fresh culture medium alone for the additional two hours incubation. The cells were then lysed and frozen at −20° C. Cell lysates were thawed on wet ice and protein concentrations quantified by BCA Protein Assay (Thermo #23225). Lysis buffer was used to normalize lysates by protein content and all lysates were then investigated by sandwich ELISA by means of DNA-PK-specific antibodies (Abcam ab44815: total DNA-PK; ab124918: phosphoserine-2056 DNA-PK) in sandwich ELISA format on the MSD S600MM platform (MesoScale Discovery). % inhibition was calculated for all data points: =1−(DATA_PT−AVERAGE(DMSO controls))/(AVERAGE(NCS controls)−AVERAGE(DMSO controls)). Logarithm of the molar concentration of compound was plotted against percent inhibition to calculate IC50 values, with curve fit settings for data fit to log(inhibitor) vs. normalized response—Variable slope using curve fit software (GraphPad Prism).
Background: An ELISA detects its analyte on a solid surface through an enzyme-linked reagent.

For series [2], the system named is pH2AX induction in HCT116 ATM-/- multicellular tumour spheroids. The series is described as follows: Prodrug Radiation Sensitization in Multicellular Tumour Spheroids, inhibition of pH2AX induction following radiation. To be noted: Homo sapiens, HCT-116, 20 Gy. It counts as cell-based. How it is done:
Prodrug compounds were assayed to determine their potency in 3D multicellular spheroids in media maintained under 20% vs 5% oxygen. Multicellular tumour spheroids were grown to approximately 0.5 mm in diameter and irradiated with 20 Gy in combination with inhibitor test compounds to determine their potency using HCT 116 and FaDu cell lines. Experiments were carried out in 96 well plates containing 0.7 mls of MEM media containing 10% FBS and 10 mM glucose under 5% CO2 at 37° C. Following dilution of compounds 1:1000 from DMSO stocks, compounds were serially diluted from 10 μM down to 3.5 nM and 5-10 spheroids added. 96 well plates were constantly stirred to avoid spheroids settling during the course of the experiment. Endpoints were pDNA-PK (ser 2056) or pH2AX (ser 139) status in spheroid cryosections taken 1 or 2 hours following radiation and fixed immediately in formalin. Using tumour cell lines deficient in ATM improved the assay signal to noise and gH2AX readout. Using this assay prodrug activity could be compared in the more oxygenated outer spheroid layers versus less oxygenated hypoxic central cell layers.

Another series deals with FaDu cell line. In words: Prodrug Activation in Hypoxic Stirred Tumour Cell Suspensions. The note with it: 10 μM, 4 hours.
[3] abbreviates: 5% O2, inner layers, read-out: Prodrug 5% O2 Inner layers EC50.
Setting [4] is: 5% O2, outer layers, read-out: Prodrug 5% O2 Outer layers EC50.
Setting [5] is: 20% O2, outer layers, read-out: Prodrug 20% O2 Outer layers EC50.

Read-outs that look alike come from different tables or passages of the source.

Experimental for FaDu cell line: Prodrug compounds were assayed to determine their stability and rate of activation in stirred cell suspensions under 0.2 vs 5% oxygen. Compounds were diluted 1:1000 from DMSO stocks to 10 μM final concentration in tumour cell suspensions (1% by cell volume) in MEM media containing 10% FBS, 10 mM glucose & 3.7 g/L sodium bicarbonate. Cell lines assayed included A253, A549, Detroit562, FaDu, HCT116, HEP G2, HT29, SCC25, SCC9, SiHa & TC32. Compounds and cells were then incubated for 4 hours under constant mixing at 37° C. under 5% CO2 and either 0.2 or 5% O2. Following the incubation period cellular activation of the compounds was assayed via MeOH extraction and HPLC quantification.

As usually defined, the IC50 is the concentration that inhibits the measured activity by half. Low values mean higher potency, high ones lower potency. A word on the EC50: it is the concentration giving half of the maximal effect. Molecule `COc1cccnc1N[C@H]1CC[C@@H](Oc2nc(N3CCOCC3)cc3ncc(N(Cc4cnc([N+](=O)[O-])n4C)S(C)(=O)=O)cc23)CC1` [LFA2009, N-[5-[4-[(3-methoxy-2-pyridyl)amino]cyclohexoxy]-7-morpholino-1,6-naphthyridin-3-yl]-N-[(3-methyl-2-nitro-imidazol-4-yl)methyl]methanesulfonamide] showed an IC50 in series [1] of 10000 to 30000 nM. The EC50 in series [2] (setting [3]), in series [2] (setting [4]) and in series [2] (setting [5]) was 1000 to 10000 nM throughout. In addition, the “Fraction of prodrug converted to active form, Hypoxic 0.2% O2” value (from here on “Fraction … Hypoxic 0.2% O2”) in the series with FaDu cell line is recorded as “B (B is 0.05 to 0.15)”. Moreover, the “Fraction of prodrug converted to active form, Oxic 5% O2” value (“Fraction … Oxic 5% O2” for short) in the series on FaDu cell line is given as “C (C is 0.02 to 0.05)”.

In series [1], `Cn1c(CN(c2cnc3cc(N4CCOCC4)nc(O[C@H]4CC[C@@H](Nc5ccc(F)cn5)CC4)c3c2)S(C)(=O)=O)cnc1[N+](=O)[O-]` [LFA2010, N-[5-[4-[(5-fluoro-2-pyridyl)amino]cyclohexoxy]-7-morpholino-1,6-naphthyridin-3-yl]-N-[(3-methyl-2-nitro-imidazol-4-yl)methyl]methanesulfonamide] yielded a half-inhibitory concentration (IC50) of 100 to 1000 nM. Further, the EC50 in series [2] (setting [3]) lay in the range of 10 to 500 nM; in series [2] (setting [4]), 500 to 1000 nM; in series [2] (setting [5]), 1000 to 10000 nM. In the series on FaDu cell line, the “Fraction … Hypoxic 0.2% O2” value was “B (B is 0.05 to 0.15)”. In addition, in the series on FaDu cell line, the “Fraction … Oxic 5% O2” value is “C (C is 0.02 to 0.05)”.

`Cc1nc(N[C@H]2CC[C@@H](Oc3nc(N4CCOCC4)cc4ncc(N(Cc5cnc([N+](=O)[O-])n5C)S(C)(=O)=O)cc34)CC2)ccc1F` [LFA2011, N-[5-[4-[(5-fluoro-6-methyl-2-pyridyl)amino]cyclohexoxy]-7-morpholino-1,6-naphthyridin-3-yl]-N-[(3-methyl-2-nitro-imidazol-4-yl)methyl]methanesulfonamide] gave an IC50 in series [1] of 10000 to 30000 nM. Moreover, the EC50 in series [2] (setting [3]), in series [2] (setting [4]) and in series [2] (setting [5]) was 1000 to 10000 nM in each case. Further, the “Fraction … Hypoxic 0.2% O2” value in the series on FaDu cell line is reported as “C (C is 0.02 to 0.05)”. Further, in the series with FaDu cell line, the “Fraction … Oxic 5% O2” value was “D (D is 0 to 0.02)”.

As to `CC(Oc1cnc2cc(N3CCOCC3)nc(O[C@H]3CC[C@@H](c4cnccn4)CC3)c2c1)c1cnc([N+](=O)[O-])n1C` (stereo partly drawn) [LFA2041, 4-[3-[1-(3-methyl-2-nitro-imidazol-4-yl)ethoxy]-5-(4-pyrazin-2-ylcyclohexoxy)-1,6-naphthyridin-7-yl]morpholine], the IC50 in series [1] was in the range of 10000 to 30000 nM. The values for the half-maximal effective concentration (EC50) in series [2] (setting [3]), in series [2] (setting [4]) and in series [2] (setting [5]) were 10 to 500 nM, 1000 to 10000 nM and 1000 to 10000 nM, respectively. In addition, in the series on FaDu cell line, the “Fraction … Hypoxic 0.2% O2” value was “A (A is 0.15 to 1)”. The “Fraction … Oxic 5% O2” value in the series on FaDu cell line is given as “B (B is 0.05 to 0.15)”.

Molecule `Cn1c(COc2cnc3cc(N4CCOCC4)nc(O[C@H]4CC[C@@H](c5cnccn5)CC4)c3c2)cnc1[N+](=O)[O-]` [LFA2042, 4-[3-[(3-methyl-2-nitro-imidazol-4-yl)methoxy]-5-(4-pyrazin-2-ylcyclohexoxy)-1,6-naphthyridin-7-yl]morpholine] yielded an IC50 in series [1] of 10000 to 30000 nM. The EC50 in series [2] (setting [3]) fell in the range of 10 to 500 nM; in series [2] (setting [4]) it was 1000 to 10000 nM; in series [2] (setting [5]) it was 1000 to 10000 nM. For the same molecule, in the series with FaDu cell line, the “Fraction … Hypoxic 0.2% O2” value is recorded as “A (A is 0.15 to 1)”. In the series on FaDu cell line, the “Fraction … Oxic 5% O2” value is “C (C is 0.02 to 0.05)”.

Regarding `CC(c1cnc([N+](=O)[O-])n1C)N(c1cnc2cc(N3CCOCC3)nc(OC3CCC(c4cnccn4)CC3)c2c1)S(C)(=O)=O` (stereo not drawn) [LFA2043, N-[1-(3-methyl-2-nitro-imidazol-4-yl)ethyl]-N-[7-morpholino-5-(4-pyrazin-2-ylcyclohexoxy)-1,6-naphthyridin-3-yl]methanesulfonamide], the 50% inhibitory concentration (IC50) in series [1] was in the range of 1000 to 10000 nM. Also, the values for the EC50 in series [2] (setting [3]), in series [2] (setting [4]) and in series [2] (setting [5]) were 10 to 500 nM, 500 to 1000 nM and 1000 to 10000 nM, respectively. Besides, the “Fraction … Hypoxic 0.2% O2” value with FaDu cell line is recorded as “B (B is 0.05 to 0.15)”. Moreover, the “Fraction … Oxic 5% O2” value with FaDu cell line was “D (D is 0 to 0.02)”.

As for `Cn1c(CN(c2cnc3cc(N4CCOCC4)nc(OC4CCC(Nc5ncc(N6CCN(CCF)CC6)cn5)CC4)c3c2)S(C)(=O)=O)cnc1[N+](=O)[O-]` (stereo not drawn) [LFA2044, N-[5-[4-[[5-[4-(2-fluoroethyl)piperazin-1-yl]pyrimidin-2-yl]amino]cyclohexoxy]-7-morpholino-1,6-naphthyridin-3-yl]-N-[(3-methyl-2-nitro-imidazol-4-yl)methyl]methanesulfonamide], in series [1], the IC50 lay in the range of 1000 to 10000 nM. In addition, the values for the EC50 in series [2] (setting [3]), in series [2] (setting [4]) and in series [2] (setting [5]) were 10 to 500 nM, 1000 to 10000 nM and 1000 to 10000 nM, respectively. For the same molecule, the “Fraction … Hypoxic 0.2% O2” value with FaDu cell line is “C (C is 0.02 to 0.05)”. Besides, the “Fraction … Oxic 5% O2” value with FaDu cell line is “D (D is 0 to 0.02)”.

In series [1], `Cn1c(CN(c2cnc3cc(N4CCOCC4)nc(OC4CCC(Nc5ncc(N6CCN(CC(F)(F)F)CC6)cn5)CC4)c3c2)S(C)(=O)=O)cnc1[N+](=O)[O-]` (stereo not drawn) [LFA2045, N-[(3-methyl-2-nitro-imidazol-4-yl)methyl]-N-[7-morpholino-5-[4-[[5-[4-(2,2,2-trifluoroethyl)piperazin-1-yl]pyrimidin-2-yl]amino]cyclohexoxy]-1,6-naphthyridin-3-yl]methanesulfonamide] gave an IC50 of 10000 to 30000 nM. The EC50 in series [2] (setting [3]), in series [2] (setting [4]) and in series [2] (setting [5]) was 1000 to 10000 nM throughout. In addition, in the series on FaDu cell line, the “Fraction … Hypoxic 0.2% O2” value is listed as “D (D is 0 to 0.02)”. In the series on FaDu cell line, the “Fraction … Oxic 5% O2” value was “D (D is 0 to 0.02)”.

The molecule `CC(c1cnc([N+](=O)[O-])n1C)N(c1cnc2cc(N3CCOCC3)nc(OC3CCC(Nc4ncc(N5CCN(CC(F)(F)F)CC5)cn4)CC3)c2c1)S(C)(=O)=O` (stereo not drawn) [LFA2046, N-[1-(3-methyl-2-nitro-imidazol-4-yl)ethyl]-N-[7-morpholino-5-[4-[[5-[4-(2,2,2-trifluoroethyl)piperazin-1-yl]pyrimidin-2-yl]amino]cyclohexoxy]-1,6-naphthyridin-3-yl]methanesulfonamide] gave a half-inhibitory concentration (IC50) in series [1] of 10000 to 30000 nM. Moreover, the values for the concentration for a half-maximal effect (EC50) in series [2] (setting [3]), in series [2] (setting [4]) and in series [2] (setting [5]) were 500 to 1000 nM, 1000 to 10000 nM and 1000 to 10000 nM, respectively. For the same molecule, the “Fraction … Hypoxic 0.2% O2” value with FaDu cell line is given as “D (D is 0 to 0.02)”. In the series on FaDu cell line, the “Fraction … Oxic 5% O2” value is on record as “D (D is 0 to 0.02)”.

With `CC(c1cnc([N+](=O)[O-])n1C)N(c1cnc2cc(N3CCOCC3)nc(OC3CCC(Nc4ncc(N5CCN(CC(F)F)CC5)cn4)CC3)c2c1)S(C)(=O)=O` (stereo not drawn) [LFA2047, N-[5-[4-[[5-[4-(2,2-difluoroethyl)piperazin-1-yl]pyrimidin-2-yl]amino]cyclohexoxy]-7-morpholino-1,6-naphthyridin-3-yl]-N-[1-(3-methyl-2-nitro-imidazol-4-yl)ethyl]methanesulfonamide], the IC50 in series [1] lay in the range of 10000 to 30000 nM. The EC50 in series [2] (setting [3]) fell in the range of 10 to 500 nM; in series [2] (setting [4]), 1000 to 10000 nM; in series [2] (setting [5]), 1000 to 10000 nM. Also, in the series on FaDu cell line, the “Fraction … Hypoxic 0.2% O2” value is “B (B is 0.05 to 0.15)”. The “Fraction … Oxic 5% O2” value with FaDu cell line is given as “D (D is 0 to 0.02)”.
